{"source": "patent US20140314791A1", "about": "“METHODS OF TREATING CANCER” (DANA-FARBER CANCER INSTITUTE, INC., priority 2012, published 2014)", "key": {"Lkb1-wt cells": {"system": "Lkb1-wt cells", "test": "Array-based viral infection and cell proliferation assay (validation), Lkb1-wt", "set-up": "species or system mouse", "details": "5 days post infection, alamarBlue", "experimental": "(C) Validation study. Relative viability of Lkb1-wt and Lkb1-null cells infected with 340 individual hairpins for 5 days. Genes of interest are highlighted by the colors indicated.\nFor array-based viral infection and assessment of proliferation, 2.5 μl virus was mixed with 250 cells in 100 μl medium containing 8 μg/ml polybrene per well in 96-well plates. The plates were spun at 2250 rpm/37° C. for 30 min. Immediately after spinning, supernatants were gently aspirated off and 100 μl fresh medium was added to each well of the 96-well plates. After 2 days incubation, medium was gently aspirated off and 100 fresh medium containing 3 μg/ml puromycin was added to each well of the 96-well plates. The plates were back to culture for additional 3 days and then the viable cells were monitored by alamarBlue (Invitrogen) assay according to manufacturer's instructions.\nTo identify Lkb1-null-selective essential genes, a synthetic lethal screen was performed using a pooled 40K murine shRNA lentiviral library for each of the Lkb1-wt and Lkb1-null cell lines described above. Relative abundance of shRNAs in each cell line sample was determined by deep-sequencing analysis, and for every shRNA, a log 2 Fold Change (log 2FC) value was calculated from the difference in relative abundance at a late time point after infection versus the initial shRNA-infected sample. An unsupervised hierarchical clustering analysis of the ranked hairpins from the triplicate pooled shRNA library screens of Lkb1-wt and Lkb1-null mouse cancer cells is shown in FIG. 1A. […] The ranked hairpins were collapsed by using two methods, a RIGER analysis (KS t-test based statistics) and a weighted second best analysis to rank genes that selectively impaired proliferation/viability in Lkb1-null cells. A union of 344 genes, identified by the top 100 individual hairpins for 88 genes (Table 1) and the top 200 genes from both the KS (Table 2) and weighted second best (Table 3), was nominated as the initial prioritized list (FIG. 1B). 340 shRNAs, targeting 70 candidate genes from this prioritized list, were chosen for validation (Table 4). The 70 genes consisted of the top 10 candidates from the KS analysis, as well as 60 others involved in a range of biological processes in an attempt to represent all biological categories in the validation process. Validation was performed in an array format with an assay of relatively short duration (5 days post infection) compared to the primary pooled screen (28 days), which should be a more stringent selection, as it required the anti-proliferative effects to manifest in a short time period. […] Dtymk, Check1, and Pdhb are the top 3 candidate genes, each with 3 hairpins that scored in the validation assay (FIG. 1C)."}, "Dtymk": {"system": "Dtymk", "test": "QPCR analysis of Dtymk knockdown in Lkb1-wt 634 cells", "details": "normalized to shGFP"}, "Lkb1-null cells": {"system": "Lkb1-null cells", "test": "IdU pulse-labeling after Dtymk knockdown, Lkb1-null", "type": "cell-based, mouse", "details": "for proportion of cells labeled with IdU: mean", "experimental": "(E) Lkb1-wt and Lkb1-null cells in 6-well plates were transduced with shDtymk-1 or shGFP. Two sets of the cells were plated into multiple chamber slides: one was 2 days and the other was 3 days post transduction. After overnight culturing, the cells were labeled with 100 μM IdU for 20 min then fixed for indirect immunofluorescence staining with anti-BrdU. The data represent mean±SD for 200˜300 cells. Representative merged images of BrdU (red) and DAPI (blue) in the indicated cells are shown (F).\nThe lower expression of DTYMK in Lkb1-null cells causes the cells to be in jeopardy of DNA damage. To investigate how further knockdown of Dtymk and the consequent decrease in the dTTP pool could affect DNA metabolism, IdU pulse-labeling in Lkb1-wt and Lkb1-null cells was performed 2.5 and 3.5 days post-transduction with shDtymk-1. […] The representative images of Lkb1-wt and Lkb1-null cells co-stained for IdU and DAPI are shown (FIG. 5F). In addition, an overall lower proportion of labeled Lkb1-null than Lkb1-wt cells (43.1% vs. 57.7%) was observed, which may be related to the lower dNTP levels in Lkb1-null cells."}, "[1]": {"system": "dTMP and dTDP levels in Lkb1-wt 634 and Lkb1-null t4 cells", "test": "Metabolite analysis of dTMP and dTDP after Dtymk knockdown", "type": "cell-based, mouse", "details": "3 days", "experimental": "(A) Graph of dTMP and dTDP levels in Lkb1-wt 634, Lkb1-null t4, and human LKB1-deficient NSCLC A549 cells transduced with the indicated shRNA for 3 days. The data represent mean±SD for 6 replicates.\nCells were plated into 6-well plates in RPMI 1640/10% dialyzed FBS/1% pen/strep and medium was changed daily. When the cells reached 80% confluence, they were washed 3 times with warm washing buffer (75 mM ammonium carbonate, pH7.4), and plates were then immediately placed on dry ice. 500 μl of extraction buffer (80% methanol, −80° C.) was added to each well and the plates were kept on dry ice for 15 min. The supernatants were collected into 1.5 ml eppendorf tubes, and another 500 μl of cold extraction buffer was added to each well. After 15 min incubation on dry ice, the supernatant and the cells were collected and pooled with the previously collected supernatant. The tubes were spun at 3750 rpm/4° C. for 30 min, and then supernatants were transferred into fresh tubes and saved at −80° C. All reactions were performed with 5 replicates.\nPrior to mass spectrometer injection, dried extracts were reconstituted in LCMS grade water. Non-targeted, flow-injection time-of-flight mass spectrometry was performed as described (Fuhrer et al., 2011). […] Mass spectra were recorded from m/z 50 to 1000 with a frequency of 1.4 spectra/s for 0.48 min using the highest resolving power (4 GHz HiRes). […]"}}, "data": [{"substance": "shDtymk-1: shRNA hairpin CAAGCTTCTGAATTCCTACTT targeting Mouse Dtymk", "values": [{"measurement": "WT ave-GR", "setting": "Lkb1-wt cells", "value": 0.53}, {"measurement": "mRNA remaining (by qPCR)", "setting": "Dtymk", "value": 20.00, "unit": "%"}, {"measurement": "proportion of cells labeled with IdU", "setting": "Lkb1-null cells; day 2.5 post infection", "value": 17.2, "unit": "%"}, {"measurement": "proportion of cells labeled with IdU", "setting": "Lkb1-null cells; day 3.5 post infection", "value": 5.8, "unit": "%"}, {"measurement": "drop of proportion of IdU-labeled cells", "setting": "Lkb1-null cells; in 3.5 days", "value": 86.5, "unit": "%"}, {"measurement": "dTDP level", "setting": "[1]", "value": "moderate decrease"}, {"measurement": "dTMP level", "setting": "[1]", "value": "significant increase"}]}]}
